Experimental findings from patent US20080108611A1, “SUBSTITUTED THIENOPYRIMIDINE KINASE INHIBITORS” (priority 2006, published 2008) are described below.

Each structure is given as a SMILES string. pIC50: −log10 of the molar value.

The term pIC50 denotes the IC50 on a negative log10 scale, so that one unit is a factor of ten. A high value points to a low IC50.

One assay concerns the target T1, Aurora-A (Mus musculus, UniProt P97477).
T1 construct: followed by the full length protein encoding the murine Aurora-A; polyhistidine (N); made in house; host or cells: Sf9 insect cells
T1 sequence (P97477 1-395): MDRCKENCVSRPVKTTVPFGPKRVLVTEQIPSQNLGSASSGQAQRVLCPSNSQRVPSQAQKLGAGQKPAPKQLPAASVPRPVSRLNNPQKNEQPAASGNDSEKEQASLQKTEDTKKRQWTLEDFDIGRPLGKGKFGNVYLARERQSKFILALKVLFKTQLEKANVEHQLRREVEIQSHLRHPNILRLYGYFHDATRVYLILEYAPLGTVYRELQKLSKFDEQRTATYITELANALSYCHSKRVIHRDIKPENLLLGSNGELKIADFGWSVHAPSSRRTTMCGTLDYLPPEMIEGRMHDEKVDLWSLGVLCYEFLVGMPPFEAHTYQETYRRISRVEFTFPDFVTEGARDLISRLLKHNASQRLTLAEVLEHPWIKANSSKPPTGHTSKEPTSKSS
Nature of the assay: Aurora-A Screening Assay. It is filed as biochemical. To be noted: murine Aurora-A full length, 10 μM ATP. On the procedure:
(§1) A kinase reaction mixture was prepared containing 50 mM Tris-HCl at pH 8, 10 mM MgCl2, 0.1 mM Na3PO4, 1 mM DTT, 10 μM ATP, 0.025 μM biotinylated histone-H1 peptide substrate and 0.2 μCuries per well ^33P-γ-ATP (2000-3000 Ci/mmol). 70 μL of the kinase reaction mixture was dispensed into the well of a Streptavidin FlashPlate.
(§2) Test compound stock in 100% DMSO (1 μL) was added to the wells resulting in a final concentration of 1% DMSO in the reaction with a 100 μL final reaction volume. Each enzyme was diluted in 50 mM Tris-HCl pH=8.0, 0.1% BSA and 30 μL was added to each well to initiate the reaction. The reaction was incubated for one hour at 30° C. At the end of the 1 hr incubation, the reaction was terminated by aspirating the mixture from the plate and washing the wells twice with PBS containing 100 mM EDTA. The biotinylated peptide substrate became immobilized on the Flashplate™ and the incorporation of ^33P-γ-ATP was measured by reading the plate on a scintillation counter. Inhibition of the enzymatic activity was measured by observing a reduced amount of ^33P-γ-ATP incorporated into the immobilized peptide.
Aurora-A is a fusion protein containing a polyhistidine tag at the N terminus followed by the full length protein encoding the murine Aurora-A (Accession number GB BC014711) expressed and purified from sf9 insect cells. The assay used 400 ng of the N-terminal biotinylated peptide biotin-GRTGRRNSI-amide (Aurora-A) per well.
(§3) The IC50 was derived according to the procedure described in Example 1.

The test system of assay [1] is HeLa cervical adenocarcinoma. The assay is described as follows: Cell Proliferation Inhibition Assay (14C-thymidine incorporation), HeLa. Type of assay: cell-based. To be noted: Homo sapiens; HeLa cells. On the procedure:
(§4) The ability of a test compound to inhibit unregulated cell proliferation was determined by measuring incorporation of ^14C-labelled thymidine into newly synthesized DNA within cell lines derived from carcinomas originating from several tissues. Accordingly, the anti-proliferative effect of a compound on cells with a variety of phenotypes may be determined.
(§5) Carcinoma cell lines include those such as HeLa cervical adenocarcinoma (American Type Culture Collection (ATCC), Virginia, Cat. #CCL-2), A375 malignant melanoma (ATCC CRL-1619), SK-OV-3 ovarian adenocarcinoma (ATCC HTB-77), HCT-116 colon carcinoma (CCL-247), PC-3 prostate adenocarcinoma (ATCC CRL-1435), and MDA-MB-231 (Xenogen Corp.)
(§6) The carcinoma cells were trypsinized and counted. The cells (3000-8000 count) were added to each well of a 96-well CytoStar tissue culture treated scintillating microplate (Amersham #RPNQ0160) in complete medium (100 μL) and the plate was then incubated in complete medium for 24 hrs at 37° C. in an […] atmosphere containing 5% CO2. Test compound (1 μL) in 100% DMSO was added to the plate test-wells with DMSO only added to control-wells. The plate was incubated in complete medium for a second 24 hr period at 37° C. in an atmosphere containing 5% CO2.
(§7) An aliquot of a solution of methyl ^14C-thymidine (56 mC/mmol) (NEN #NEC568 or Amersham #CFA532) and complete medium (20 uL to provide 0.2 μCi/well) was then added to each well and the plate was incubated for a third 24 hr period at 37° C. in an atmosphere containing 5% CO2. The plate contents were then discarded, the plate was washed twice with PBS (200 μL) and then PBS (200 μL) was added to each well. The plate was sealed and the degree of methyl ^14C-thymidine incorporation was quantified on a Packard Top Count.
A general note: Uptake of a labelled nucleoside into DNA is a usual measure of proliferation.

In the next assay the test system is HCT-116 colon carcinoma. The assay is described as follows: Cell Proliferation Inhibition Assay (14C-thymidine incorporation), HCT116. It is filed as cell-based. The settings on record: Homo sapiens, HCT116 cells. On the procedure:
as §4, §5, §6, §7

The test system of the next assay is A375 malignant melanoma. Nature of the assay: Cell Proliferation Inhibition Assay (14C-thymidine incorporation), A375. It is filed as cell-based. The settings on record: Homo sapiens, A-375; A375 cells. On the procedure:
as §4, §5, §6, §7

A further assay addresses T2, VEGF-R2 (Rattus norvegicus, UniProt O08775).
T2 construct: polyhistidine (N)
The assay is described as follows: VEGF-R2 Screening Assay. To be noted: rat VEGF-R2 kinase domain, 10 μM ATP. It is filed as biochemical. The procedure:
as §1, §2
The VEGF-R2 enzyme is a fusion protein containing a polyhistidine tag at the N terminus followed by amino acids 786 to 1343 of the rat VEGF-R2 kinase domain (Accession number U93306). The assay used 150 ng of the N-terminal biotinylated peptide biotin-KHKKLAEGSAYEEV-amide (VEGF-R2) per well.
as §3

For another assay, the target named is T3, HER-2 (Homo sapiens, UniProt P04626).
T3 construct: the nucleotides encoding amino acids 679 to 1255 of HER-2; HIS6-Thrombin (His6 tag and thrombin site) (N); purchased Proqinase (Freiburg, Germany)
The assay is described as follows: HER-2 Kinase Assay. It is filed as biochemical. To be noted: GST-HER2, 1 μM ATP. The procedure:
HER-2 kinase was purified at Proqinase (Freiburg, Germany) from a construct that consisted of a fusion of GST (Glutathione-S-Transferase), HIS6-Thrombin and the nucleotides encoding amino acids 679 to 1255 of HER-2.
A mixture of a 10× kinase reaction buffer (600 mM Hepes at pH 7.5, 30 mM Magnesium Chloride, 0.03 mM Sodium Vanadate and 500 μg/mL PEG 20,000), DTT (1.2 mM final from a 10 mM stock), ATP (1 μM from a 10 mM stock), biotinylated polyGluTyr (1.5 ng/μL final from stock of 1 μg/μL prepared by Upstate Biotechnologies, Lake Placid, N.Y.), Manganese Chloride (3 mM final from a 1 M stock), γ-^33P-ATP (10 μCi/μL stock) and water (70 μL/well) was added to each well of a Streptavidin Flashplate (Cat. # SMP103, NEN, Boston, Mass.).
Test compound stock (1 μL) was added to the appropriate wells. Diluted GSTHER2 kinase (6.7 ng/μL diluted into 50 mM Tris-HCl at pH 8.0 and 0.1% bovine serum albumin) (30 μL) was added (total volume of 200 ng/well) to initiate the reactions.
The reaction plates were incubated at 30° C. for 1 hr. The reaction was terminated by aspirating the reaction mixture from the plate wells and washing the wells three times with a 1×PBS stop buffer (300 μL) and 100 mM EDTA. After the final wash, the same stop buffer (200 μL) was again added to the wells. The plates were then sealed and read on the TopCount scintillation counter. The IC50 was derived according to the procedure described in Example 1.

T2 sequence (O08775 786-1343): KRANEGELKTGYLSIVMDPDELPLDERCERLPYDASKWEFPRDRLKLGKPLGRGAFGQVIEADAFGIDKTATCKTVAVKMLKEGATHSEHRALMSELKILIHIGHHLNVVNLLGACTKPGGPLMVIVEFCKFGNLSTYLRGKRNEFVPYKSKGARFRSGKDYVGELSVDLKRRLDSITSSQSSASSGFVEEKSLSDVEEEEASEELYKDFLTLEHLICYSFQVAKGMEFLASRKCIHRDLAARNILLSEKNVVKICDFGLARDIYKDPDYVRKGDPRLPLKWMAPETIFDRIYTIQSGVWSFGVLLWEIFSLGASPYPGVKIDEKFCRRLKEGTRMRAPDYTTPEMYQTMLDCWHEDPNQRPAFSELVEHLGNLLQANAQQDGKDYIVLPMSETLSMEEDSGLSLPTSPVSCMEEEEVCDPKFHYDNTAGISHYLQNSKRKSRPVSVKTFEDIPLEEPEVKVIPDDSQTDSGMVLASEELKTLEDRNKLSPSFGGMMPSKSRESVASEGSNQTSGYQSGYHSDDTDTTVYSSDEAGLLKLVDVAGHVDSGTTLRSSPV
T3 sequence (P04626 679-1255): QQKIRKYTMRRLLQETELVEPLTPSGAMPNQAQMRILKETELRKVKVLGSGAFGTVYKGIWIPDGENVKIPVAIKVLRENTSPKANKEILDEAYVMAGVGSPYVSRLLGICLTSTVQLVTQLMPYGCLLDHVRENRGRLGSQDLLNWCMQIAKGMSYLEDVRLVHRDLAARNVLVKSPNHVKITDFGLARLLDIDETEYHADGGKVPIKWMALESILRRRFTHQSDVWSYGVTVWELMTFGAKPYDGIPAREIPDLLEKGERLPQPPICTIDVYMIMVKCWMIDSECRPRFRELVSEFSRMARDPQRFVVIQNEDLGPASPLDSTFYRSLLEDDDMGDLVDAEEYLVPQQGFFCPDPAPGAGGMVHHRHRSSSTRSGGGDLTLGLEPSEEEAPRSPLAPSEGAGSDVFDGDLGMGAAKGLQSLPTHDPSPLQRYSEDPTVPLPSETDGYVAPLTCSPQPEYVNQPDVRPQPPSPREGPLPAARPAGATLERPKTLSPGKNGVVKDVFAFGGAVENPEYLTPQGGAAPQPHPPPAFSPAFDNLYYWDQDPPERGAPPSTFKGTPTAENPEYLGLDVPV

Turning to `Cc1c(C(=O)NCCN2CCOCC2)sc2ncnc(Nc3ccc(NC(=O)c4ccccc4)cc3)c12` [Cpd 25, 4-(4-benzoylamino-phenylamino)-5-methyl-thieno[2,3-d]pyrimidine-6-carboxylic acid (2-morpholin-4-yl-ethyl)-amide], the pIC50 on Aurora-A was below 5.00; in assay [1], below 5.00; in the assay on HCT-116 colon carcinoma, below 5.00; with A375 malignant melanoma, below 5.00; against VEGF-R2 it was below 4.00; on HER-2, below 4.00.

With `Cc1c(C(=O)NCCCN2CCOCC2)sc2ncnc(Nc3ccc(NC(=O)c4ccccc4)cc3)c12` [Cpd 26, 4-(4-benzoylamino-phenylamino)-5-methyl-thieno[2,3-d]pyrimidine-6-carboxylic acid (3-morpholin-4-yl-propyl)-amide], the negative logarithm of the IC50 (pIC50) against Aurora-A was below 6.00; in assay [1], below 5.00; in the assay with HCT-116 colon carcinoma, below 5.00; with A375 malignant melanoma it was below 5.00; at VEGF-R2, below 4.00; against HER-2 it was below 5.00.
